Columns and labels:
Format in all cases: in vivo
[1] = tested on: pigweed (Amaranthus retroflexus); experiment: Test C pre-/postemergence: pigweed
Procedure, shortened: (§1)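 Visual injury scored 0–100 (100 = complete control) against untreated controls after 13–15 greenhouse days. Surfactant-containing solvent formulations applied either to soil after sowing (loam/sand) or over 1- to 4-leaf plants, 2–18 cm tall.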

[2] = tested on: barnyardgrass (Echinochloa crus-galli); experiment: Test A pre-/postemergence: barnyardgrass; details: Postemergence, 0 to 100 scale, 0 is no effect, 100 is complete control; for Plant response rating, Barnyardgrass: 125 g ai/ha; for Barnyardgrass plant response rating: 500 g ai/ha
Procedure, shortened: (§2)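 Compounds, formulated with surfactant in non-phytotoxic solvent, were applied as a directed soil spray preemergence and as postemergence sprays to 2–10 cm, one- to two-leaf seedlings grown in loam soil blended with sand; visual injury, 0–100, assessed ~10 days post-treatment against untreated controls.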

[3] = tested on: galium (catchweed bedstraw, Galium aparine); experiment: Test C pre-/postemergence: galium
Procedure, shortened: as §1

kochia (Kochia scoparia) = experiment: Test C pre-/postemergence: kochia; details: Postemergence
Procedure, shortened: as §1

[4] = tested on: ryegrass, Italian (Italian ryegrass, Lolium multiflorum); experiment: Test C pre-/postemergence: ryegrass, Italian
Procedure, shortened: as §1

corn (Zea mays) = experiment: Test A pre-/postemergence: corn
Procedure, shortened: as §2

[5] = tested on: nutsedge, yellow (yellow nutsedge, Cyperus esculentus); experiment: Test C pre-/postemergence: nutsedge, yellow
Procedure, shortened: as §1

[6] = tested on: winter wheat (Triticum aestivum); experiment: Test C pre-/postemergence: winter wheat
Procedure, shortened: as §1

[7] = tested on: johnsongrass (Sorghum halepense); experiment: Test C pre-/postemergence: johnsongrass
Procedure, shortened: as §1

[8] = tested on: morningglory (Ipomoea spp.); experiment: Test A pre-/postemergence: morningglory
Procedure, shortened: as §2

[9] = tested on: large crabgrass (Digitaria sanguinalis); experiment: Test C pre-/postemergence: large crabgrass
Procedure, shortened: as §1

[10] = Postemergence, 31 g ai/ha, scale 0 to 100 (0 no effect, 100 complete control)
[11] = Postemergence, 62 g ai/ha, scale 0 to 100 (0 no effect, 100 complete control)
[12] = Postemergence, 125 g ai/ha, scale 0 to 100, 0 no effect, 100 complete control
[13] = Postemergence, 250 g ai/ha, scale 0 to 100 (0 no effect, 100 complete control)
[14] = Preemergence, 31 g ai/ha, scale 0 (no effect) to 100 (complete control)
[15] = Preemergence, 62 g ai/ha, scale of 0 to 100, 0 is no effect, 100 is complete control
[16] = Preemergence, 125 g ai/ha, scale 0 to 100, 0 no effect, 100 complete control
[17] = Preemergence, 250 g ai/ha, scale 0 to 100, 0 no effect, 100 complete control
[18] = 31 g ai/ha, scale 0 to 100 (0 no effect, 100 complete control)
[19] = 62 g ai/ha, scale 0 to 100 (0 no effect, 100 complete control)
[20] = 125 g ai/ha, scale 0 to 100, 0 no effect, 100 complete control
[21] = 250 g ai/ha, scale 0 to 100 (0 no effect, 100 complete control)
[22] = Postemergence, 125 g ai/ha, 0 to 100 scale, 0 is no effect, 100 is complete control
[23] = Postemergence, 500 g ai/ha, 0 to 100 scale, 0 is no effect, 100 is complete control
[24] = Preemergence, 125 g ai/ha, 0 to 100 scale where 0 is no effect and 100 is complete control
[25] = Preemergence, 500 g ai/ha, 0 to 100 scale (0 no effect, 100 complete control)
[26] = Postemergence, 250 g ai/ha, scale 0 to 100

CCc1nn(-c2ccc(F)c(F)c2)nc1Oc1ccnc(C(F)(F)F)c1 [Compound 171]
Plant response rating, Pigweed [1, 10]: 70 | Plant response rating, Pigweed [1, 11]: 90 | Plant response rating, Pigweed [1, 12]: 90 | Plant response rating, Pigweed [1, 13]: 98 | Plant response rating, Pigweed [1, 14]: 60 | Plant response rating, Pigweed [1, 15]: 100 | Plant response rating, Pigweed [1, 16]: 100 | Plant response rating, Pigweed [1, 17]: 100 | Plant response rating, Barnyardgrass [2]: 80 | Barnyardgrass plant response rating [2]: 90 | Plant response rating, Galium [3, 10]: 70 | Plant response rating, Galium [3, 11]: 75 | Plant response rating, Galium [3, 12]: 80 | Plant response rating, Galium [3, 13]: 80 | Plant response rating, Galium [3, 14]: 5 | Plant response rating, Galium [3, 15]: 98 | Plant response rating, Galium [3, 16]: 98 | Plant response rating, Galium [3, 17]: 100 | Plant response rating, Kochia (kochia (Kochia scoparia); [18]): 90 | Plant response rating, Kochia (kochia (Kochia scoparia); [19]): 90 | Plant response rating, Kochia (kochia (Kochia scoparia); [20]): 90 | Plant response rating, Kochia (kochia (Kochia scoparia); [21]): 90 | Plant response rating, Ryegrass, Italian [4, 10]: 5 | Plant response rating, Ryegrass, Italian [4, 11]: 5 | Plant response rating, Ryegrass, Italian [4, 12]: 10 | Plant response rating, Ryegrass, Italian [4, 13]: 10 | Plant response rating, Ryegrass, Italian [4, 14]: 10 | Plant response rating, Ryegrass, Italian [4, 15]: 50 | Plant response rating, Ryegrass, Italian [4, 16]: 60 | Plant response rating, Ryegrass, Italian [4, 17]: 100 | Plant response rating, Corn (corn (Zea mays); [22]): 20 | Corn plant response rating (corn (Zea mays); [23]): 30 | Plant response rating, Corn (corn (Zea mays); [24]): 10 | Plant response rating, Corn (corn (Zea mays); [25]): 30 | Plant response rating, Nutsedge, Yellow [5, 10]: 5 | Plant response rating, Nutsedge, Yellow [5, 11]: 5 | Plant response rating, Nutsedge, Yellow [5, 12]: 10 | Plant response rating, Nutsedge, Yellow [5, 13]: 10 | Plant response rating, Nutsedge, Yellow [5, 14]: 0 | Plant response rating, Nutsedge, Yellow [5, 15]: 0 | Plant response rating, Nutsedge, Yellow [5, 16]: 0 | Plant response rating, Nutsedge, Yellow [5, 17]: 0 | Plant response rating, Wheat [6, 10]: 5 | Plant response rating, Wheat [6, 11]: 10 | Plant response rating, Wheat [6, 12]: 20 | Plant response rating, Wheat [6, 13]: 20 | Plant response rating, Wheat [6, 14]: 0 | Plant response rating, Wheat [6, 15]: 0 | Plant response rating, Wheat [6, 16]: 5 | Plant response rating, Wheat [6, 17]: 45 | Plant response rating, Johnsongrass [7, 10]: 15 | Plant response rating, Johnsongrass [7, 11]: 15 | Plant response rating, Johnsongrass [7, 12]: 25 | Plant response rating, Johnsongrass [7, 13]: 25 | Plant response rating, Johnsongrass [7, 14]: 0 | Plant response rating, Johnsongrass [7, 15]: 25 | Plant response rating, Johnsongrass [7, 16]: 75 | Plant response rating, Johnsongrass [7, 17]: 95 | Plant response rating, Morningglory [8, 22]: 100 | Morningglory plant response rating [8, 23]: 100 | Plant response rating, Morningglory [8, 24]: 50 | Plant response rating, Morningglory [8, 25]: 60 | Plant response rating, Crabgrass, Large [9, 10]: 15 | Plant response rating, Crabgrass, Large [9, 11]: 20 | Plant response rating, Crabgrass, Large [9, 12]: 40 | Plant response rating, Crabgrass, Large [9, 26]: 55 | Plant response rating, Crabgrass, Large [9, 14]: 85 | Plant response rating, Crabgrass, Large [9, 15]: 100 | Plant response rating, Crabgrass, Large [9, 16]: 100 | Plant response rating, Crabgrass, Large [9, 17]: 100

CCCc1nn(-c2ccc(F)c(F)c2)nc1Oc1ccnc(C(F)(F)F)c1 [Compound 172]
Plant response rating, Pigweed [1, 10]: 98 | Plant response rating, Pigweed [1, 11]: 98 | Plant response rating, Pigweed [1, 12]: 98 | Plant response rating, Pigweed [1, 13]: 98 | Plant response rating, Pigweed [1, 14]: 100 | Plant response rating, Pigweed [1, 15]: 100 | Plant response rating, Pigweed [1, 16]: 100 | Plant response rating, Pigweed [1, 17]: 100 | Plant response rating, Barnyardgrass [2]: 90 | Barnyardgrass plant response rating [2]: 90 | Plant response rating, Galium [3, 10]: 90 | Plant response rating, Galium [3, 11]: 90 | Plant response rating, Galium [3, 12]: 90 | Plant response rating, Galium [3, 13]: 90 | Plant response rating, Galium [3, 14]: 80 | Plant response rating, Galium [3, 15]: 100 | Plant response rating, Galium [3, 16]: 100 | Plant response rating, Galium [3, 17]: 100 | Plant response rating, Kochia (kochia (Kochia scoparia); [18]): 90 | Plant response rating, Kochia (kochia (Kochia scoparia); [19]): 90 | Plant response rating, Kochia (kochia (Kochia scoparia); [20]): 90 | Plant response rating, Kochia (kochia (Kochia scoparia); [21]): 90 | Plant response rating, Ryegrass, Italian [4, 10]: 10 | Plant response rating, Ryegrass, Italian [4, 11]: 20 | Plant response rating, Ryegrass, Italian [4, 12]: 35 | Plant response rating, Ryegrass, Italian [4, 13]: 40 | Plant response rating, Ryegrass, Italian [4, 14]: 100 | Plant response rating, Ryegrass, Italian [4, 15]: 100 | Plant response rating, Ryegrass, Italian [4, 16]: 100 | Plant response rating, Ryegrass, Italian [4, 17]: 100 | Plant response rating, Corn (corn (Zea mays); [22]): 30 | Corn plant response rating (corn (Zea mays); [23]): 50 | Plant response rating, Corn (corn (Zea mays); [24]): 30 | Plant response rating, Corn (corn (Zea mays); [25]): 60 | Plant response rating, Nutsedge, Yellow [5, 10]: 10 | Plant response rating, Nutsedge, Yellow [5, 11]: 10 | Plant response rating, Nutsedge, Yellow [5, 12]: 15 | Plant response rating, Nutsedge, Yellow [5, 13]: 15 | Plant response rating, Nutsedge, Yellow [5, 14]: 0 | Plant response rating, Nutsedge, Yellow [5, 15]: 5 | Plant response rating, Nutsedge, Yellow [5, 16]: 5 | Plant response rating, Nutsedge, Yellow [5, 17]: 5 | Plant response rating, Wheat [6, 10]: 10 | Plant response rating, Wheat [6, 11]: 20 | Plant response rating, Wheat [6, 12]: 25 | Plant response rating, Wheat [6, 13]: 30 | Plant response rating, Wheat [6, 14]: 15 | Plant response rating, Wheat [6, 15]: 40 | Plant response rating, Wheat [6, 16]: 45 | Plant response rating, Wheat [6, 17]: 45 | Plant response rating, Johnsongrass [7, 10]: 35 | Plant response rating, Johnsongrass [7, 11]: 60 | Plant response rating, Johnsongrass [7, 12]: 65 | Plant response rating, Johnsongrass [7, 13]: 95 | Plant response rating, Johnsongrass [7, 14]: 60 | Plant response rating, Johnsongrass [7, 15]: 75 | Plant response rating, Johnsongrass [7, 16]: 95 | Plant response rating, Johnsongrass [7, 17]: 98 | Plant response rating, Morningglory [8, 22]: 100 | Morningglory plant response rating [8, 23]: 100 | Plant response rating, Morningglory [8, 24]: 60 | Plant response rating, Morningglory [8, 25]: 80 | Plant response rating, Crabgrass, Large [9, 10]: 20 | Plant response rating, Crabgrass, Large [9, 11]: 55 | Plant response rating, Crabgrass, Large [9, 12]: 65 | Plant response rating, Crabgrass, Large [9, 26]: 95 | Plant response rating, Crabgrass, Large [9, 14]: 100 | Plant response rating, Crabgrass, Large [9, 15]: 100 | Plant response rating, Crabgrass, Large [9, 16]: 100 | Plant response rating, Crabgrass, Large [9, 17]: 100
